How the values were obtained:
Rats [1] = experiment: Carrageenan pleurisy, exudate volume at 4 hours; format: in vivo
Experimental: Compounds were administered orally 1 hour prior to and 1 hour post pleurisy induction in a volume of 0.5 ml 1% gum tragacanth. Indomethacin was used at 3 mg/kg. MED 15 was used at 25, 50 and 100 mg/kg.
A 1% solution of carrageenan in sterile saline was prepared. The solution was placed in an incubator at 37°C for half an hour to allow complete hydration of the carrageenan. The solution was then mixed to homogeneity.
A 21Gx40mm syringe needle was reduced in length to 5mm and fitted to a 1ml syringe containing the irritant. Rats were lightly anaesthetised with halothane. Each animal was placed on its left side. The skin over the thorax was lifted with and a 1cm incision made through the skin with a pair of scissors. The wound was opened to expose the underlying muscle. Using a scalpel, a 2-3mm incision was made into the muscle of the 5th-6th intercostal space. A volume of 0.15ml of carrageenan solution was then injected into the pleural cavity. The wound was closed with a 11mm Michel clip and the animal allowed to recover from the anaesthetic. Groups of animals were killed 4 hours after pleurisy induction.
Lavage solution: One part of 3.15% trisodium citrate solution, mixed with nine parts of Hank's balanced salt solution.
Rats were killed by over exposure to carbon dioxide. For each rat the skin over the thorax was moistened with IMS alcohol. The skin over the sternum was then lifted and a 5cm cut made, to expose the musculature of the upper abdomen and thoracic cavity. The muscle overlying the xiphisternum was lifted with tissue forceps and a 1cm cut made through the muscle to reveal the cartilage. This was then lifted and the diaphragm perforated just beneath the cartilage. Two cuts were then made through the rib cage either side of the cartilage to form a flap which could be folded back to expose the thoracic cavity.
Using a syringe, 1ml of lavage fluid was introduced into the thoracic cavity. The fluid was aspirated 2-3 times with a 3ml pastette to wash the cavity, before being collected into separate 10ml conical-based plastic test-tubes. Any blood contaminated fluids were rejected.
The mass of each tube with fluid was determined. By subtracting the mass of an empty tube from these values, and assuming a density for the fluid of 1g/cm^3, the fluid volume was quantified.
Results were analysed by ANOVA followed by Bonferroni T-test. Values of p<0.05 were considered significant.
Dosing was one hour prior to and one hour post pleurisy induction and inflammation was assessed at 4 hours.

patients [2] = experiment: Clinical trials: tolerability, adverse events and suspensions of treatment; format: in vivo, man; details: 31 comparative and 6 non-comparative clinical trials, 1596 patients
Description: Interest in the amtolmetin guacyl molecule arose following a thorough analysis of the results of 31 comparative and 6 non-comparative clinical trials involving 1596 patients. […] Turthermore the physician, being aware of administering an NSAID, was expecting adverse events and could not be expected to be an impartial observer. The few cases of gastro-intestinal phenomena reported with amtolmetin guacyl were transitory and in no event accompanied by the presence of occult blood in the stools. Moreover, even in the presence of a reported side-effect it was almost never necessary to suspend treatment (0.4% of suspensions).
Following are summarized the results obtained on a total of 1596 patients in 37 clinical trials.
Confirmation of the above described advantages is the very low incidence of treatment suspension for adverse events found in clinics (Table 17), which is not the case for most of NSAIDs known in the art (Table 18).

Rats [3] = experiment: Adjuvant arthritis (joint diameter and patellar bone mass); format: in vivo; details: for % Change: ([left-right]/right)X100
Experimental: The drugs were administered daily by oral gavage for 4 days (day 0-3); piroxicam and MED 15 were dissolved in 5% Gum arabic + 0.01% Tween 80, and administered in a volume of 0.5ml. Piroxicam was administered as 3mg/kg and MED 15 was administered as 25, 50 and 100mg/kg doses. Table 8 bis illustrating dosage regimes. L=left stifle joint, R=Right stifle joint.
Under halothane anaesthesia, rats received 200µg of heat-killed finely ground Mycobactyerium tubercolosis in 25µl (80mg/10ml sterile saline) injected intra-articulary into the left stifle joint. The contralateral joint received 25µl 0.9% sterile saline. Control animals received 25µl of 0.9% sterile saline in both knees. SGE 50µl microsyringes with a volume lock calibrated at 25µl were used with 30G stainless steel needles. Solutions were prepared sterile, and aseptic technique was used throughout, with sterilisation of syringes between groups.
The rats were killed by carbon dioxide suffocation. The body weight was noted and the skin overlying the stifle joints was divided and the joint diameters assessed in mm using Mitutoyo vernier callipers (530-312, 0.02mm).
The patellae were dissected, weighed (Sartorius, 0.01mg) and then immersed in 1ml digestion buffer (see below) to remove soft tissue.
Digestive buffer was prepared fresh to the following formula; disodium hydrogen orthophosphate 20mM, EDTA 1mM and diothiothreitol at 2mM. Papain (EC 3.4.22.2) was added at a concentration of 6U/ml. Each patella was digested in 1ml of digestive buffer at 56°C for 4 hours. The residual paterllar bones were dried (100°C 24 hours) and weighed (Sartorius 0.01mg).
Results are presented as follows: left and right parameter alone, the difference between arthritic and contralateral control joint (left-right); and % difference between arthritic and control joints ([left-right]/right]X100).
Calculations were carried out using the spreadsheet program Lotus 123. Statistical comparisons were made between the absolute differences using INSTAT Mann Whitney unpaired two-tailed statistical test.

patients [4] = details: 336 patients, Diclofenac 100mg, cited from earlier work; for Suspensions of treatment: number of patients, 180 days of treatment; for % of totale: suspensions of treatment, 180 days
[5] = system: post-traumatic arthralgia; experiment: Clinical comparison in post-traumatic arthralgia; format: in vivo, man
Description: The same can be said in the treatment of post-traumatic arthralgia.

Rats [6] = experiment: Diuresis in normally hydrated rats; format: in vivo
Experimental: In the course of various studies conducted on animals to show the lack of renal impairment, a test was carried out to compare the diuresis in normally hydrated rats treated orally for 8 consecutive days with amtolmeting guacyl and diclofenac, which is also a NSAID. […] It is to be stressed that the behaviour of diclofenac is completely in line with the behaviour of a NSAID as known in the art, that is to say to markedly reduce the diuresis, while that of amtolmeting guacyl is completely unforeseeable.
Repeated doses (one per day) for 8 days increased diuresis in the treated rats by 35% (see fig. 13).

gastric PGE2 = experiment: Effect on gastric PGE2 in the rat; format: in vivo
Description: Moreover, as with all the NSAIDs currently aveilable, it inhibits gastric PGE2 in the rat, albeit to a lesser degree than ASA (Table 7).

## COc1ccc2c(c1)c(CC(=O)O)c(C)n2C(=O)c1ccc(Cl)cc1 [Indomethacin, reference compound]
Rats [1]; 3mg/kg orally 1 hour prior to and 1 hour post induction, 4 hour, control 0.94±0.04
  Exudate volume: 0.47 ± 0.11 mL
Rats [1]; 3mg/kg, compared to gum tragacanth control
  reduction in exudate volume: 50%
Patients [2]
  incidence of adverse events involving the stomach: ≥ 30%

## CN1C(C(=O)Nc2ccccn2)=C(O)c2ccccc2S1(=O)=O [Piroxicam, reference compound]
Rats [3]; 3mg/kg daily oral, day 0-3
  Swelling Diameter difference (L-R): 1.67 mm
Rats [3]; 3mg/kg daily oral, day 0-3, left = arthritic joint
  Joint diameter (mm) Left: 10.41 mm
Rats [3]; 3mg/kg daily oral, day 0-3, right = saline control joint
  Joint diameter (mm) Right: 8.74 mm
Rats [3]; joint diameter, 3mg/kg daily oral
  % Change: 19.15%
Rats [3]; patellar bone mass, 3mg/kg daily oral
  % Change: -27.74%
Rats [3]; patellar bone mass, arthritic groups
  protection against bone loss: greatest protection against bone loss
Rats [3]; patellar bone, 3mg/kg daily oral
  Bone loss Left-Right: -1.31 mg
Rats [3]; patellar bone, 3mg/kg daily oral, left = arthritic joint
  Bone mass (mg) Left: 3.07 mg
Rats [3]; patellar bone, 3mg/kg daily oral, right = saline control joint
  Bone mass (mg) Right: 4.21 mg

## O=C(O)Cc1ccccc1Nc1c(Cl)cccc1Cl [Diclofenac, reference compound]
Patients [4]
  Suspensions of treatment: 63
  % of totale: 18,7%
[5]
  duration of effect: 3 h
  latency time: 20 min
  time to reach peak effect: 1 h
Rats [6]; single dose, average
  decreased diuresis: 10%
Rats [6]; treated orally for 8 consecutive days, fig. 13
  diuresis: clear decrease

## CC(=O)Oc1ccccc1C(=O)O [ASA, acetyl salicylic acid, reference compound]
Gastric PGE2; gastric PGE2 versus controls
  %inhibition: 86.7%
Gastric PGE2; gastric tissue, rat, controls 108.7±23.9
  PGE2 (ngtg^Δ tissue)±S.E.: 14.4±4.5 nanograms for gram of tissue

## Cc1cnc(NC(=O)C2=C(O)c3ccccc3S(=O)(=O)N2C)s1 [Meloxicam]
Patients [4]
  Suspensions of treatment: 42
  % of totale: 12,4%

Source: patent EP1024807B1, “USE OF THE COMPOUND 2-METHOXYPHENYL-1-METHYL-5P-METHYLBENZOYL-PYRROL-2-ACETAMIDO ACETATE FOR THE PRODUCTION OF AN ANTI-INFLAMMATORY DRUG WITH PREVENTION OF GASTRIC HYPERSECRETION AND RENAL IMPAIRMENT” (MEDOSAN Ricerca S.r.l., priority 1997, dated 1999)
